Values after ≈ are worked out from the molar mass of the structure shown.
How the values were obtained:
Assay type in all cases: functional
Staphylococcus aureus [1] = experiment: Effective dose required to inhibit Staphylococcus aureus intraperitoneal (IP) infection model
Staphylococcus aureus [2] = experiment: Minimum inhibitory concentration against Staphylococcus aureus
Pasteurella multocida = experiment: Minimum inhibitory concentration against Pasteurella multocida
Escherichia coli = experiment: Minimum inhibitory concentration against Escherichia coli
Staphylococcus aureus [3] = experiment: Colony forming units of Staphylococcus aureus intramammary infection (IMI) model was determined at a dose of 15 mg/kg

SMILES | ED50 (Staphylococcus aureus [1]) | MIC (Staphylococcus aureus [2]) | MIC (Pasteurella multocida) | MIC (Escherichia coli) | MIC (Staphylococcus aureus [1]) | Log CFU (Staphylococcus aureus [3])
CC[C@H]1OC(=O)[C@H](C)[C@H]2OC3(CCN(C(=O)c4c[nH]c5ccccc45)CC3)O[C@](C)(C[C@@H](C)CN[C@H](C)[C@@H](O)[C@]1(C)O)[C@H](O[C@@H]1O[C@H](C)C[C@H](N(C)C)[C@H]1O)[C@H]2C | 11 mg/kg | 0.39 µg/mL (≈ 0.487 µM) | 0.1 µg/mL (≈ 0.125 µM) | 6.25 µg/mL (≈ 7.8 µM) | – | –
CC[C@H]1OC(=O)[C@H](C)[C@H]2OC3(CCN(C(=O)c4cc5ccccc5[nH]4)CC3)O[C@](C)(C[C@@H](C)CN[C@H](C)[C@@H](O)[C@]1(C)O)[C@H](O[C@@H]1O[C@H](C)C[C@H](N(C)C)[C@H]1O)[C@H]2C | > 20 mg/kg | 0.78 µg/mL (≈ 0.974 µM) | 0.1 µg/mL (≈ 0.125 µM) | 3.13 µg/mL (≈ 3.91 µM) | – | –
CC[C@H]1OC(=O)[C@H](C)[C@H]2OC3(CCN(C(=O)c4cnc5ccccc5c4)CC3)O[C@](C)(C[C@@H](C)CN(C)[C@H](C)[C@@H](O)[C@]1(C)O)[C@H](O[C@@H]1O[C@H](C)C[C@H](N(C)C)[C@H]1O)[C@H]2C | > 20 mg/kg | 0.39 µg/mL (≈ 0.472 µM) | 0.1 µg/mL (≈ 0.121 µM) | 6.25 µg/mL (≈ 7.56 µM) | – | –
CC[C@H]1OC(=O)[C@H](C)[C@H]2OC3(CCN(Cc4ccc(-c5ccccc5)cc4)CC3)O[C@](C)(C[C@@H](C)CN(C)[C@H](C)[C@@H](O)[C@]1(C)O)[C@H](O[C@@H]1O[C@H](C)C[C@H](N(C)C)[C@H]1O)[C@H]2C | > 20 mg/kg | 0.2 µg/mL (≈ 0.239 µM) | 0.1 µg/mL (≈ 0.119 µM) | 1.56 µg/mL (≈ 1.86 µM) | – | –
CC[C@H]1OC(=O)[C@H](C)[C@H]2OC3(CCN(C(=O)c4cncc(Cl)c4Cl)CC3)O[C@](C)(C[C@@H](C)CN[C@H](C)[C@@H](O)[C@]1(C)O)[C@H](O[C@@H]1O[C@H](C)C[C@H](N(C)C)[C@H]1O)[C@H]2C | > 20 mg/kg | 3.13 µg/mL (≈ 3.76 µM) | 0.1 µg/mL (≈ 0.12 µM) | 3.13 µg/mL (≈ 3.76 µM) | – | –
CC[C@H]1OC(=O)[C@H](C)[C@H]2OC3(CCN(C(=O)c4occc4C)CC3)O[C@](C)(C[C@@H](C)CN[C@H](C)[C@@H](O)[C@]1(C)O)[C@H](O[C@@H]1O[C@H](C)C[C@H](N(C)C)[C@H]1O)[C@H]2C | > 20 mg/kg | 0.78 µg/mL (≈ 1.02 µM) | 0.1 µg/mL (≈ 0.131 µM) | 1.56 µg/mL (≈ 2.04 µM) | – | –
CC[C@H]1OC(=O)[C@H](C)[C@H]2OC3(CCN(CCc4ccc(C#N)cc4)CC3)O[C@](C)(C[C@@H](C)CN(C)[C@H](C)[C@@H](O)[C@]1(C)O)[C@H](O[C@@H]1O[C@H](C)C[C@H](N(C)C)[C@H]1O)[C@H]2C | 22 mg/kg | 0.78 µg/mL (≈ 0.974 µM) | 0.03 µg/mL (≈ 0.0374 µM) | 0.39 µg/mL (≈ 0.487 µM) | – | –
CC[C@H]1OC(=O)[C@H](C)[C@H]2OC3(CCN(CCc4ccoc4)CC3)O[C@](C)(C[C@@H](C)CN(C)[C@H](C)[C@@H](O)[C@]1(C)O)[C@H](O[C@@H]1O[C@H](C)C[C@H](N(C)C)[C@H]1O)[C@H]2C | – | – | 0.03 µg/mL (≈ 0.0392 µM) | 0.2 µg/mL (≈ 0.261 µM) | – | –
CC[C@H]1OC(=O)[C@H](C)[C@H]2OC3(CCN(CCc4cccc(OC)c4)CC3)O[C@](C)(C[C@@H](C)CN(C)[C@H](C)[C@@H](O)[C@]1(C)O)[C@H](O[C@@H]1O[C@H](C)C[C@H](N(C)C)[C@H]1O)[C@H]2C | > 20 mg/kg | 0.6 µg/mL (≈ 0.744 µM) | 0.03 µg/mL (≈ 0.0372 µM) | 0.2 µg/mL (≈ 0.248 µM) | – | –
CC[C@H]1OC(=O)[C@H](C)[C@H]2OC3(CCN(CCc4ccnc5ccccc45)CC3)O[C@](C)(C[C@@H](C)CN(C)[C@H](C)[C@@H](O)[C@]1(C)O)[C@H](O[C@@H]1O[C@H](C)C[C@H](N(C)C)[C@H]1O)[C@H]2C | > 20 mg/kg | 0.39 µg/mL (≈ 0.472 µM) | 0.05 µg/mL (≈ 0.0605 µM) | 1.56 µg/mL (≈ 1.89 µM) | – | –
CC[C@H]1OC(=O)[C@H](C)[C@H]2OC3(CCN(C(=O)c4cccs4)CC3)O[C@](C)(C[C@@H](C)CN(C)[C@H](C)[C@@H](O)[C@]1(C)O)[C@H](O[C@@H]1O[C@H](C)C[C@H](N(C)C)[C@H]1O)[C@H]2C | – | – | 0.05 µg/mL (≈ 0.0639 µM) | 1.56 µg/mL (≈ 1.99 µM) | > 20 µg/mL | –
CC[C@H]1OC(=O)[C@H](C)[C@H]2OC3(CCN(C(=O)c4ccc(-c5ccccc5)cc4)CC3)O[C@](C)(C[C@@H](C)CN[C@H](C)[C@@H](O)[C@]1(C)O)[C@H](O[C@@H]1O[C@H](C)C[C@H](N(C)C)[C@H]1O)[C@H]2C | – | 0.78 µg/mL (≈ 0.931 µM) | 0.2 µg/mL (≈ 0.239 µM) | 6.25 µg/mL (≈ 7.46 µM) | – | –
CC[C@H]1OC(=O)[C@H](C)[C@H]2OC3(CCN(CCc4ccc(Cl)c(Cl)c4)CC3)O[C@](C)(C[C@@H](C)CN[C@H](C)[C@@H](O)[C@]1(C)O)[C@H](O[C@@H]1O[C@H](C)C[C@H](N(C)C)[C@H]1O)[C@H]2C | – | 0.39 µg/mL (≈ 0.469 µM) | 0.05 µg/mL (≈ 0.0602 µM) | 3.13 µg/mL (≈ 3.77 µM) | – | –
CC[C@H]1OC(=O)[C@H](C)[C@H]2OC3(CCN(Cc4ccncc4)CC3)O[C@](C)(C[C@@H](C)CN[C@H](C)[C@@H](O)[C@]1(C)O)[C@H](O[C@@H]1O[C@H](C)C[C@H](N(C)C)[C@H]1O)[C@H]2C | 6.4 mg/kg | 1.56 µg/mL (≈ 2.08 µM) | 0.03 µg/mL (≈ 0.0401 µM) | 0.78 µg/mL (≈ 1.04 µM) | – | –
CC[C@H]1OC(=O)[C@H](C)[C@H]2OC3(CCN(CCc4ccc(OC)cc4)CC3)O[C@](C)(C[C@@H](C)CN[C@H](C)[C@@H](O)[C@]1(C)O)[C@H](O[C@@H]1O[C@H](C)C[C@H](N(C)C)[C@H]1O)[C@H]2C | – | 0.2 µg/mL (≈ 0.253 µM) | 0.01 µg/mL (≈ 0.0126 µM) | 0.2 µg/mL (≈ 0.253 µM) | – | –
CC[C@H]1OC(=O)[C@H](C)[C@H]2OC3(CCN(C(=O)c4ccccc4)CC3)O[C@](C)(C[C@@H](C)CN(C)[C@H](C)[C@@H](O)[C@]1(C)O)[C@H](O[C@@H]1O[C@H](C)C[C@H](N(C)C)[C@H]1O)[C@H]2C | – | – | 0.1 µg/mL (≈ 0.129 µM) | 3.13 µg/mL (≈ 4.03 µM) | – | –
CC[C@H]1OC(=O)[C@H](C)[C@H]2OC3(CCN(Cc4cccnc4)CC3)O[C@](C)(C[C@@H](C)CN(C)[C@H](C)[C@@H](O)[C@]1(C)O)[C@H](O[C@@H]1O[C@H](C)C[C@H](N(C)C)[C@H]1O)[C@H]2C | > 20 mg/kg | 0.78 µg/mL (≈ 1.02 µM) | 0.03 µg/mL (≈ 0.0393 µM) | 0.39 µg/mL (≈ 0.511 µM) | – | –
CC[C@H]1OC(=O)[C@H](C)[C@H]2OC3(CCN(CCc4ccc(Cl)c(Cl)c4)CC3)O[C@](C)(C[C@@H](C)CN(C)[C@H](C)[C@@H](O)[C@]1(C)O)[C@H](O[C@@H]1O[C@H](C)C[C@H](N(C)C)[C@H]1O)[C@H]2C | – | 0.2 µg/mL (≈ 0.237 µM) | 0.05 µg/mL (≈ 0.0592 µM) | 50 µg/mL (≈ 59.2 µM) | – | –
CC[C@H]1OC(=O)[C@H](C)[C@H]2OC3(CCN(CCc4ccccc4OC)CC3)O[C@](C)(C[C@@H](C)CN(C)[C@H](C)[C@@H](O)[C@]1(C)O)[C@H](O[C@@H]1O[C@H](C)C[C@H](N(C)C)[C@H]1O)[C@H]2C | > 20 mg/kg | 0.39 µg/mL (≈ 0.484 µM) | 0.03 µg/mL (≈ 0.0372 µM) | 0.1 µg/mL (≈ 0.124 µM) | – | –
CC[C@H]1OC(=O)[C@H](C)[C@H]2OC3(CCN(CCc4ccc5ccccc5n4)CC3)O[C@](C)(C[C@@H](C)CN(C)[C@H](C)[C@@H](O)[C@]1(C)O)[C@H](O[C@@H]1O[C@H](C)C[C@H](N(C)C)[C@H]1O)[C@H]2C | > 20 mg/kg | 0.39 µg/mL (≈ 0.472 µM) | 0.03 µg/mL (≈ 0.0363 µM) | 0.78 µg/mL (≈ 0.943 µM) | – | –
CC[C@H]1OC(=O)[C@H](C)[C@H]2OC3(CCN(CCc4ccccc4)CC3)O[C@](C)(C[C@@H](C)CN[C@H](C)[C@@H](O)[C@]1(C)O)[C@H](O[C@@H]1O[C@H](C)C[C@H](N(C)C)[C@H]1O)[C@H]2C | > 20 mg/kg | 0.39 µg/mL (≈ 0.512 µM) | 0.03 µg/mL (≈ 0.0394 µM) | 0.1 µg/mL (≈ 0.131 µM) | – | –
CC[C@H]1OC(=O)[C@H](C)[C@H]2OC3(CCN(CCc4ccc(Cl)cc4)CC3)O[C@](C)(C[C@@H](C)CN[C@H](C)[C@@H](O)[C@]1(C)O)[C@H](O[C@@H]1O[C@H](C)C[C@H](N(C)C)[C@H]1O)[C@H]2C | – | – | 0.01 µg/mL (≈ 0.0126 µM) | 0.2 µg/mL (≈ 0.251 µM) | – | –
CC[C@H]1OC(=O)[C@H](C)[C@H]2OC3(CCN(CCc4ccccc4OC)CC3)O[C@](C)(C[C@@H](C)CN[C@H](C)[C@@H](O)[C@]1(C)O)[C@H](O[C@@H]1O[C@H](C)C[C@H](N(C)C)[C@H]1O)[C@H]2C | – | 0.39 µg/mL (≈ 0.492 µM) | 0.03 µg/mL (≈ 0.0379 µM) | 0.1 µg/mL (≈ 0.126 µM) | – | –
CC[C@H]1OC(=O)[C@H](C)[C@H]2OC3(CCN(CCc4ccnc5ccccc45)CC3)O[C@](C)(C[C@@H](C)CN[C@H](C)[C@@H](O)[C@]1(C)O)[C@H](O[C@@H]1O[C@H](C)C[C@H](N(C)C)[C@H]1O)[C@H]2C | > 20 mg/kg | 0.2 µg/mL (≈ 0.246 µM) | 0.05 µg/mL (≈ 0.0615 µM) | 1.56 µg/mL (≈ 1.92 µM) | – | –
CC[C@H]1OC(=O)[C@H](C)[C@H]2OC3(CCN(C(=O)c4ccco4)CC3)O[C@](C)(C[C@@H](C)CN(C)[C@H](C)[C@@H](O)[C@]1(C)O)[C@H](O[C@@H]1O[C@H](C)C[C@H](N(C)C)[C@H]1O)[C@H]2C | > 20 mg/kg | – | 0.05 µg/mL (≈ 0.0653 µM) | 0.78 µg/mL (≈ 1.02 µM) | – | 3.3
CC[C@H]1OC(=O)[C@H](C)[C@H]2OC3(CCNCC3)O[C@](C)(C[C@@H](C)CN(C)[C@H](C)[C@@H](O)[C@]1(C)O)[C@H](O[C@@H]1O[C@H](C)C[C@H](N(C)C)[C@H]1O)[C@H]2C | – | 6.25 µg/mL (≈ 9.3 µM) | 0.05 µg/mL (≈ 0.0744 µM) | 0.2 µg/mL (≈ 0.298 µM) | – | –
CC[C@H]1OC(=O)[C@H](C)[C@H]2OC3(CCN(CCc4cccc(OC)c4)CC3)O[C@](C)(C[C@@H](C)CN[C@H](C)[C@@H](O)[C@]1(C)O)[C@H](O[C@@H]1O[C@H](C)C[C@H](N(C)C)[C@H]1O)[C@H]2C | – | 0.39 µg/mL (≈ 0.492 µM) | 0.03 µg/mL (≈ 0.0379 µM) | 0.3 µg/mL (≈ 0.379 µM) | – | –
